Measurements taken from PMC4192597, “Antimicrobials, Stress and Mutagenesis” (PLoS Pathogens, 2014).
Converted amounts (≈) assume the structure as drawn. Where two headings read alike, the source gives them in different places. Ends that are not written are not given here.

Key:
[1] = test system: E. coli stress response genes; details: kanamycin 5 μg/ml, ref Kohanski,2007, cited from earlier work
E. coli MG1655 [2] = assay: microbe, parasite or virus in culture; format: cell-based, Escherichia coli; details: 4 hours, 50% reduction of CFUs vs control, Mueller Hinton Broth, 37°C, five replicates, repeated twice
Protocol: The MIC50s for all antimicrobials were determined by inoculating strains grown to mid-log phase into the wells of a 96-microwell plate. Approximately 10^2 cells from overnight cultures were inoculated into tubes containing 10 ml of Mueller Hinton Broth medium, and the tubes were incubated at 37°C with strong shaking until the mid-log phase of growth (approximately 10^8 cells/ml). […] The plates were incubated at 37°C for 4 h with continuous shaking in a plate reader (Synergy 2, BioTeK). After four hours, aliquots from wells with OD^600 readings ranging from 10 to 90% values in comparison with the control, were serially diluted in sterile 0.9% NaCl, and incubated during 1 hour to allow the resolution of filaments as consequence of SOS activation, if any. Bacterial suspensions were plated in Mueller Hinton Broth agar plates to estimate the viability as colony forming units (CFUs). Five replicates per concentration were prepared and the experiments were repeated twice.

[3] = test system: E. coli stress response genes (strain MG1655); assay: Relative gene expression of stress response genes by quantitative real-time PCR; format: cell-based, Escherichia coli; details: for Expression, cpxA (Envelope stress) / Expression, cpxR (Envelope stress) / Expression, dinB (SOS response) / Expression, lexA (SOS response) / Expression, marR (Independent multiple antibiotic resistance) / Expression, oxyR (Oxidative stress) / Expression, phoP (Envelope stress) / Expression, phoQ (Envelope stress) / Expression, recA (SOS response) / Expression, rpoE (Envelope stress) / Expression, rpoS (Sigma S response) / Expression, umuC (SOS response): normalized to arcA, mdoG, tus, Pexiganan 16, Melittin 16, Kanamycin 16, Ciprofloxacin 0.5, Lysozyme 128, Ampicillin 32 μg/ml, three biological replicates; for Result, cpxR: key: NDE: non-differentially expressed, p-value ≥ 0,05; UP: upregulated, p-value ≤ 0,05; DOWN: downregulated, p-value ≤ 0,05; for Result, oxyR: key: NDE: non-differentially expressed, p-value ≥ 0,05; UP: upregulated, p-value ≤ 0,05; DOWN: downregulated, p-value ≤ 0,05; for Result, rpoE: key: NDE: non-differentially expressed, p-value ≥ 0,05; UP: upregulated, p-value ≤ 0,05; DOWN: downregulated, p-value ≤ 0,05
Protocol: Preparation of each of the six treatments and the control samples was carried out by two operators on three consecutive days, thereby comprising three biological replicates for each of the six experimental and one control groups. To obtain the starting material for the experiment, a fresh bacterial culture was grown from a glycerol stock on Mueller-Hinton (MH) agar plates at 37°C for 18–24 hours. One well-isolated colony per biological replicate was used to inoculate 2 ml of liquid MH (Sigma) in a 10 ml sterile polypropylene tube and incubated at 37°C for 16 hours with mild shaking. The overnight (ON) culture was then diluted 1∶100 in MH, subdivided into seven 10 ml aliquots and incubated in 50 ml-Falcon tubes at 37°C for 2.5 hours at 220 rpm. When the OD600 of bacterial cultures reached 0.5–0.7, respective antibiotics and AMPs were added to a concentration to match with those used in the mutagenesis experiments. These bacterial cultures were incubated for 20 minutes at 37°C with gentle shaking. Two ml of bacterial cultures from each treatment and the control were collected, immediately centrifuged at 10000 g for 2 minutes and the supernatant was removed to stop the treatment. The bacterial pellet was then resuspended in 1 ml MH, followed by an addition of 1 ml of RNAprotect Bacteria Reagent (Qiagen), 5 minutes incubation and centrifugation at 10000 g for 2 minutes at room temperature. The supernatant was discarded and the bacterial pellet was immediately frozen and stored at −80°C until RNA extraction.
Total RNA was isolated using RNeasy kit (Qiagen) according to the manufacturer's instructions and eluted in 50 µl of RNase-free water. The nucleic acid yield and purity were determined by measuring the optical density at A260/280 using a Nanodrop spectrophotometer (Thermo Scientific). RNA samples were treated with TURBO DNase (Life Technologies). Briefly, ten µg of RNA were used in a total volume of 500 µl containing 20 units of TURBO DNase, incubated for 30 minutes at 37°C, immediately followed by RNeasy (Qiagen) cleanup and elution in 30 µl of RNase-free water. Following DNase treatment, RNA integrity was assessed using Agilent RNA 6000 Nano kit and 2100 Bioanalyzer instrument (both Agilent Technologies).
High-Capacity cDNA Reverse Transcription Kit with RNase Inhibitor (Applied Biosystems) was used for cDNA synthesis. Initially, to ensure linear conversion of the transcripts, the dynamic range of reverse transcription reaction was tested by performing a standard curve with cDNA, synthesised using various input amounts of pooled RNA. Total RNA (250 ng per reaction) and random primers were used for cDNA synthesis. To obtain sufficient amount of cDNA, several batches of 20 µl RT reactions were pooled, diluted 50-fold with RNase-free water and stored in single-use aliquots at −80°C until further use. All 21 samples were tested for presence of contaminating genomic DNA by running the mdoG assay with cDNA and the respective no reverse transcription (−RT) controls.
Escherichia coli strain K-12 substrain MG1655 complete genome (accession U00096) sequence was downloaded from NCBI database (www.ncbi.nlm.nih.gov) and used for primer design. Target sequence accession number, location of the amplicon, amplicon length and primer sequences for each assay can be found in table S2. Primers were designed using Primer Express software (Applied Biosystems) and optimized for annealing temperature of 60°C. Each primer pair and amplicon were checked for secondary structure formation using Oligo Tool (Integrated DNA technologies, http://eu.idtdna.com/analyzer/Applications/OligoAnalyzer/).

E. coli MG1655 [4] = assay: Killing by AMPs under thiourea ROS scavenger; format: cell-based, Escherichia coli; details: thiourea 100 mM (Figure S3)
Protocol: SOS and rpoS mediated mutagenesis are well supported by empirical work, and it was recently proposed that antibiotics promote ROS formation and kill bacterial by lethal induction of hydroxyl-mediated DNA damage. Here we explored this new and debated proposition also for AMPs. We assessed AMP killing curves in E. coli MG1655 in the presence of the ROS scavenger thiourea (100 mM) and used Kanamycin as positive control.
Kanamycin was used a positive control. The procedure was the same as described in this work elsewhere for MIC50 (Fig. S3).

E. coli MG1655 [5] = assay: Minimal inhibitory concentration (MIC), micro-dilution; format: cell-based, Escherichia coli; details: inoculum 2×10^8 cfu/ml, 24 h, liquid MH medium, 37°C
Protocol: E. coli K-12 MG1655 was used for all experiments, grown in liquid Mueller-Hilton (MH) agar or agarose, unless otherwise indicated. All experiments were carried out at 37°C.
MICs were determined according to CLSI recommendations by a micro-dilution method with the exception that the inoculum size that was adjusted to 2×10^8 cfu/ml from a regrowth of overnight cultures to be consistent with the mutagenesis experiments. […] Polypropylene non-binding plates (Th. Geyer, Germany) were used for all experiments.

E. coli MG1655 [6] = assay: Luria-Delbrück fluctuation assay, mutation rate (rifampicin resistance); format: cell-based, Escherichia coli; details: concentrations ranging from 0.5 to 4 µg/ml (Figure S1)
Protocol: We first investigated the mutation rates of E. coli using a Luria-Delbrück fluctuation test. We used the Escherichia coli strain MG1655 and the concentration of all antimicrobials was adjusted to limit bacterial growth to 50% in four hours of treatment.
The duration of treatment was set to 4 hours for all antimicrobials, and the concentrations were adjusted to obtain around 50% of inhibition of grow in comparison to the a non-treated control. Three ml of exponentially growing culture of E. coli MG1655 (∼2×10^8 cells/ml) were centrifuged at 4000 g for 10 minutes and re-suspended in the same volume of MH with different concentrations of antimicrobials at 37°C with shaking (200 rpm). After incubation, the cultures were centrifuged for 10 min at 4000 g. The pellet was re-suspended, washed twice with MH and re-suspended in 3 ml of fresh medium and incubated overnight (16 h) at 37°C with shaking. This step is necessary to resolve the filaments that some antimicrobials induce due to their toxic action and allow recovery of cells under stress. Cultures were diluted and plated to determine the number of colony forming units in MH agar plates. The number of mutants was estimated by the number of colonies growing on rifampicin (100 µg/ml). […]
We also assessed if different AMP concentrations (Fig. S1) or different inoculum sizes (10^2, 10^4, 10^6, 10^8 cfu/ml) influenced mutation rates (Fig. S2).

[7] = qPCR, 20 minutes exposure vs non-treated bacteria, REST 2009 randomisation test
[8] = qPCR, 20 minutes exposure vs non-treated bacteria

Row | Compound | MIC50 (E. coli MG1655 [2]) [µg/mL] | Result, cpxA [3, 7] | Result, cpxR [3, 7] | Result, dinB [3, 7] | Result, lexA [3, 7] | Result, marR [3, 7] | Result, oxyR [3, 7] | Result, phoP [3, 7] | Expression, cpxA (Envelope stress) [3, 8] | Expression, cpxR (Envelope stress) [3, 8] | Expression, dinB (SOS response) [3, 8] | Expression, lexA (SOS response) [3, 8] | Expression, marR (Independent multiple antibiotic resistance) [3, 8] | Expression, oxyR (Oxidative stress) [3, 8] | Expression, phoP (Envelope stress) [3, 8] | Expression, phoQ (Envelope stress) [3, 8] | Expression, recA (SOS response) [3, 8] | Expression, rpoE (Envelope stress) [3, 8] | Expression, rpoS (Sigma S response) [3, 8] | Expression, umuC (SOS response) [3, 8] | also measured
1 | NC[C@H]1O[C@H](O[C@H]2[C@H](O)[C@@H](O[C@H]3O[C@H](CO)[C@@H](O)[C@H](N)[C@H]3O)[C@H](N)C[C@@H]2N)[C@H](O)[C@@H](O)[C@@H]1O [Kanamycin] | 1.6 | NDE | NDE | NDE | NDE | NDE | NDE | NDE | 1.069 | 0.812 | 1.083 | 1.302 | 1.073 | 1.333 | 0.94 | 0.769 | 1.331 | 1.236 | 0.967 | 0.974 | expression, rpoE (microarray database) ([1]; 30 min): 2.118; expression, marR (microarray database) ([1]; 60 min): 8.767; expression, phoP (microarray database) ([1]; 60 min): 2.411; expression, lexA (microarray database) ([1]; 120 min): 3.48; expression, oxyR (microarray database) ([1]; 120 min): 3.362; Result, phoQ [3, 7]: NDE; Result, recA [3, 7]: NDE; Result, rpoE [3, 7]: NDE; Result, rpoS [3, 7]: NDE; Result, umuC [3, 7]: NDE; killing / sensitivity in the presence of the ROS scavenger thiourea (E. coli MG1655 [4]): reduced sensitivity; MIC (E. coli MG1655 [5]): 2 µg/mL (≈ 4.13 µM)
2 | CC[C@H](C)[C@H](NC(=O)CN)C(=O)NCC(=O)N[C@@H](C)C(=O)N[C@H](C(=O)N[C@@H](CC(C)C)C(=O)N[C@@H](CCCCN)C(=O)N[C@H](C(=O)N[C@@H](CC(C)C)C(=O)N[C@H](C(=O)N[C@H](C(=O)NCC(=O)N[C@@H](CC(C)C)C(=O)N1CCC[C@H]1C(=O)N[C@@H](C)C(=O)N[C@@H](CC(C)C)C(=O)N[C@H](C(=O)N[C@@H](CO)C(=O)N[C@@H](Cc1c[nH]c2ccccc12)C(=O)N[C@H](C(=O)N[C@@H](CCCCN)C(=O)N[C@@H](CCCNC(=N)N)C(=O)N[C@@H](CCCCN)C(=O)N[C@@H](CCCNC(=N)N)C(=O)N[C@@H](CCC(N)=O)C(=O)N[C@@H](CCC(N)=O)C(N)=O)[C@@H](C)CC)[C@@H](C)CC)[C@@H](C)O)[C@@H](C)O)C(C)C)C(C)C [Melittin] | 1.6 | NDE | NDE | NDE | NDE | NDE | NDE | NDE | 1.295 | 0.953 | 0.991 | 1.1 | 0.743 | 1.337 | 0.857 | 0.87 | 1.12 | 1.197 | 0.972 | 0.926 | mutation rates over a gradient of sub-inhibitory to inhibitory concentrations (E. coli MG1655 [6]): did not change; Result, phoQ [3, 7]: NDE; Result, recA [3, 7]: NDE; Result, rpoE [3, 7]: NDE; Result, rpoS [3, 7]: NDE; Result, umuC [3, 7]: NDE
3 | GIGKFLKKAKKFGKAFVKILKK-NH2 (C-terminus assumed) [Pexiganan] |  |  |  |  |  |  |  |  | 0.893 | 0.846 | 1.114 | 1.049 | 4.048 | 1.187 | 3.074 | 2.447 | 0.733 | 1.108 | 1.353 | 0.925 | mutation rates over a gradient of sub-inhibitory to inhibitory concentrations (E. coli MG1655 [6]): did not change; Result, cpxA [3]: NDE; Result, cpxR [3]: NDE; Result, dinB [3]: NDE; Result, lexA [3]: NDE; Result, marR [3]: UP (4.05-fold); Result, oxyR [3]: NDE; Result, phoP [3]: UP (3.07-fold); Result, phoQ [3]: UP (2.45-fold); Result, recA [3]: NDE; Result, rpoE [3]: NDE; Result, rpoS [3]: NDE; Result, umuC [3]: NDE; overexpression of three envelope stress genes (marR, phoP and phoQ) ([3]; qPCR, 20 minutes exposure): overexpression; MIC (E. coli MG1655 [5]): 2 µg/mL
